From ChEMBL document CHEMBL5518206, “Hit-to-Lead Identification and Validation of a Triaromatic Pleuromutilin Antibiotic Candidate” (J Med Chem, 2024)
Converted amounts (≈) assume the structure as drawn. The source made the active and inactive calls. The rule behind the calls is not given here.

Experiments:
Staphylococcus aureus [1] = assay: Induction of resistant development in -(6-(6-(Piperazin-1-y1)-9H-purin-9-y)methyl)pyridin-3-y1)-1H-1,2,3-triazol-1-yl)-22-deoxypleuromutilin-16 passages resistance developed Staphylococcus aureus USA300 FPR3757 assessed as fold increase in MIC at sub-MIC concentration measured after 5 passages with conjugate by serial passage assay; format: functional
Staphylococcus aureus [2] = assay: Induction of resistant development in -(6-(6-(Piperazin-1-y1)-9H-purin-9-y)methyl)pyridin-3-y1)-1H-1,2,3-triazol-1-yl)-22-deoxypleuromutilin-16 passages resistance developed Staphylococcus aureus USA300 FPR3757 assessed as fold increase in MIC at sub-MIC concentration measured after 9 passages with conjugate by serial passage assay; format: functional
Staphylococcus aureus [3] = assay: Induction of resistant development in -(6-(6-(Piperazin-1-y1)-9H-purin-9-y)methyl)pyridin-3-y1)-1H-1,2,3-triazol-1-yl)-22-deoxypleuromutilin-16 passages resistance developed Staphylococcus aureus USA300 FPR3757 assessed as fold increase in MIC at sub-MIC concentration measured after 13 passages with conjugate by serial passage assay; format: functional
Staphylococcus aureus [4] = assay: Induction of resistant development in -(6-(6-(Piperazin-1-y1)-9H-purin-9-y)methyl)pyridin-3-y1)-1H-1,2,3-triazol-1-yl)-22-deoxypleuromutilin-16 passages resistance developed Staphylococcus aureus USA300 FPR3757 assessed as fold increase in MIC at sub-MIC concentration measured after 18 passages with conjugate by serial passage assay; format: functional
Staphylococcus aureus [5] = assay: Induction of resistant development in -(6-(6-(Piperazin-1-y1)-9H-purin-9-y)methyl)pyridin-3-y1)-1H-1,2,3-triazol-1-yl)-22-deoxypleuromutilin-16 passages resistance developed Staphylococcus aureus USA300 FPR3757 assessed as fold increase in MIC at sub-MIC concentration measured after 22 passages with conjugate by serial passage assay; format: functional
Staphylococcus aureus [6] = assay: Induction of resistant development in -(6-(6-(Piperazin-1-y1)-9H-purin-9-y)methyl)pyridin-3-y1)-1H-1,2,3-triazol-1-yl)-22-deoxypleuromutilin-16 passages resistance developed Staphylococcus aureus USA300 FPR3757 assessed as fold increase in MIC at sub-MIC concentration measured after 25 passages with conjugate by serial passage assay; format: functional
Staphylococcus aureus [7] = assay: Induction of resistant development in -(6-(6-(Piperazin-1-y1)-9H-purin-9-y)methyl)pyridin-3-y1)-1H-1,2,3-triazol-1-yl)-22-deoxypleuromutilin-16 passages resistance developed Staphylococcus aureus USA300 FPR3757 assessed as fold increase in MIC at sub-MIC concentration measured after 28 passages with conjugate by serial passage assay; format: functional
Staphylococcus aureus [8] = assay: Induction of resistant development in lefamulin 5 passages resistance developed Staphylococcus aureus USA300 FPR3757 assessed as fold increase in MIC at sub-MIC concentration measured after 5 passages with conjugate by serial passage assay; format: functional
Staphylococcus aureus [9] = assay: Induction of resistant development in lefamulin 5 passages resistance developed Staphylococcus aureus USA300 FPR3757 assessed as fold increase in MIC at sub-MIC concentration measured after 9 passages with conjugate by serial passage assay; format: functional
Staphylococcus aureus [10] = assay: Induction of resistant development in lefamulin 5 passages resistance developed Staphylococcus aureus USA300 FPR3757 assessed as fold increase in MIC at sub-MIC concentration measured after 13 passages with conjugate by serial passage assay; format: functional
Staphylococcus aureus [11] = assay: Induction of resistant development in lefamulin 5 passages resistance developed Staphylococcus aureus USA300 FPR3757 assessed as fold increase in MIC at sub-MIC concentration measured after 18 passages with conjugate by serial passage assay; format: functional
Staphylococcus aureus [12] = assay: Induction of resistant development in lefamulin 5 passages resistance developed Staphylococcus aureus USA300 FPR3757 assessed as fold increase in MIC at sub-MIC concentration measured after 22 passages with conjugate by serial passage assay; format: functional
Staphylococcus aureus [13] = assay: Induction of resistant development in lefamulin 5 passages resistance developed Staphylococcus aureus USA300 FPR3757 assessed as fold increase in MIC at sub-MIC concentration measured after 25 passages with conjugate by serial passage assay; format: functional
Staphylococcus aureus [14] = assay: Induction of resistant development in lefamulin 5 passages resistance developed Staphylococcus aureus USA300 FPR3757 assessed as fold increase in MIC at sub-MIC concentration measured after 28 passages with conjugate by serial passage assay; format: functional
Staphylococcus aureus [15] = assay: Induction of resistant development in linezolid 5 passages resistance developed Staphylococcus aureus USA300 FPR3757 assessed as fold increase in MIC at sub-MIC concentration measured after 5 passages with conjugate by serial passage assay; format: functional
Staphylococcus aureus [16] = assay: Induction of resistant development in linezolid 5 passages resistance developed Staphylococcus aureus USA300 FPR3757 assessed as fold increase in MIC at sub-MIC concentration measured after 9 passages with conjugate by serial passage assay; format: functional
Staphylococcus aureus [17] = assay: Induction of resistant development in linezolid 5 passages resistance developed Staphylococcus aureus USA300 FPR3757 assessed as fold increase in MIC at sub-MIC concentration measured after 13 passages with conjugate by serial passage assay; format: functional
Staphylococcus aureus [18] = assay: Induction of resistant development in linezolid 5 passages resistance developed Staphylococcus aureus USA300 FPR3757 assessed as fold increase in MIC at sub-MIC concentration measured after 18 passages with conjugate by serial passage assay; format: functional
Staphylococcus aureus [19] = assay: Induction of resistant development in linezolid 5 passages resistance developed Staphylococcus aureus USA300 FPR3757 assessed as fold increase in MIC at sub-MIC concentration measured after 22 passages with conjugate by serial passage assay; format: functional
Staphylococcus aureus [20] = assay: Induction of resistant development in linezolid 5 passages resistance developed Staphylococcus aureus USA300 FPR3757 assessed as fold increase in MIC at sub-MIC concentration measured after 25 passages with conjugate by serial passage assay; format: functional
Staphylococcus aureus [21] = assay: Induction of resistant development in linezolid 5 passages resistance developed Staphylococcus aureus USA300 FPR3757 assessed as fold increase in MIC at sub-MIC concentration measured after 28 passages with conjugate by serial passage assay; format: functional
Staphylococcus aureus [22] = assay: Antibacterial activity against multi drug-resistant Staphylococcus aureus USA300 FPR3757 assessed as reduction in bacterial growth at 1 times of MIC concentration measured after 24 hrs by time-kill assay; format: functional, organism-based
[23] = Inhibition of P-gp efflux in MDCKII-MDR1 cells using calcein-AM as substrate assessed as intracellular calcein fluorescence preincubated for 15 mins followed by substrate addition and measured by fluorescence based assay; format: cell-based; conditions: Canis lupus familiaris
Staphylococcus aureus [24] = assay: Antibacterial activity against multi drug-resistant Staphylococcus aureus USA300 FPR3757 assessed as inhibition of visible growth incubated for 20 to 24 hrs by microbroth serial dilution assay; format: functional; conditions: time 20-24 hrs, read-out: MIC100
Streptococcus pneumoniae = assay: Antibacterial activity against Streptococcus pneumoniae assessed as inhibition of visible growth incubated for 20 to 24 hrs by microbroth serial dilution assay; format: functional; conditions: time 20-24 hrs, read-out: MIC100
Enterococcus faecalis = assay: Antibacterial activity against Enterococcus faecalis assessed as inhibition of visible growth incubated for 20 to 24 hrs by microbroth serial dilution assay; format: functional; conditions: time 20-24 hrs, read-out: MIC100
Enterococcus faecium [25] = assay: Antibacterial activity against Vancomycin-resistant Enterococcus faecium assessed as inhibition of visible growth incubated for 20 to 24 hrs by microbroth serial dilution assay; format: functional; conditions: time 20-24 hrs, read-out: MIC100
Enterococcus faecium [26] = assay: Antibacterial activity against Linezolid/Ampicillin/ciprofloxacin/Vancomycin-resistant Enterococcus faecium assessed as inhibition of visible growth incubated for 20 to 24 hrs by microbroth serial dilution assay; format: functional; conditions: time 20-24 hrs, read-out: MIC100
Escherichia coli = assay: Antibacterial activity against Escherichia coli assessed as inhibition of visible growth incubated for 20 to 24 hrs by microbroth serial dilution assay; format: functional, organism-based; conditions: time 20-24 hrs
Listeria = assay: Antibacterial activity against Listeria assessed as inhibition of visible growth incubated for 20 to 24 hrs by microbroth serial dilution assay; format: functional, organism-based; conditions: time 20-24 hrs
[27] = tested on: Staphylococcus epidermidis; assay: Antibacterial activity against Staphylococcus epidermidis assessed as inhibition of visible growth incubated for 20 to 24 hrs by microbroth serial dilution assay; format: functional, organism-based; conditions: time 20-24 hrs
[28] = molecular target: Voltage-gated inwardly rectifying potassium channel KCNH2 (Homo sapiens, UniProt Q12809); assay: Inhibition of hERG expressed in HEK293 cells assessed as tail current measured after 8 mins by automated whole-cell Qpatch Clamp assay
hERG (KCNH2) = hERG (KCNH2) (Homo sapiens, UniProt Q12809); assay: Inhibition of hERG expressed in HEK293 cells assessed as tail current at 60 uM measured after 8 mins by automated whole-cell Qpatch Clamp assay relative to control; conditions: HEK293 cells that express hERG
in vitro [29] = conditions: mouse, liver microsomes
in vitro [30] = conditions: mouse, liver microsomes; remark: listed apart in the source
in vitro [31] = conditions: human, liver microsomes
in vitro [32] = conditions: human, liver microsomes; remark: listed apart in the source
Staphylococcus aureus [33] = assay: In vivo antibacterial activity against methicillin susceptible Staphylococcus aureus ATCC 25923 infected sepsis/peritonitis infection model assessed as reduction in bacterial burden in peritoneum at 80 mg/kg, sc twice at 1 hr and 3 hrs measured after 6 hrs; format: functional
Staphylococcus aureus [34] = assay: In vivo antibacterial activity against methicillin susceptible Staphylococcus aureus ATCC 25923 infected sepsis/peritonitis infection model assessed as reduction in bacterial burden in blood at 80 mg/kg, sc twice at 1 hr and 3 hrs measured after 6 hrs; format: functional

Sequence of hERG (KCNH2) (Q12809 whole entry): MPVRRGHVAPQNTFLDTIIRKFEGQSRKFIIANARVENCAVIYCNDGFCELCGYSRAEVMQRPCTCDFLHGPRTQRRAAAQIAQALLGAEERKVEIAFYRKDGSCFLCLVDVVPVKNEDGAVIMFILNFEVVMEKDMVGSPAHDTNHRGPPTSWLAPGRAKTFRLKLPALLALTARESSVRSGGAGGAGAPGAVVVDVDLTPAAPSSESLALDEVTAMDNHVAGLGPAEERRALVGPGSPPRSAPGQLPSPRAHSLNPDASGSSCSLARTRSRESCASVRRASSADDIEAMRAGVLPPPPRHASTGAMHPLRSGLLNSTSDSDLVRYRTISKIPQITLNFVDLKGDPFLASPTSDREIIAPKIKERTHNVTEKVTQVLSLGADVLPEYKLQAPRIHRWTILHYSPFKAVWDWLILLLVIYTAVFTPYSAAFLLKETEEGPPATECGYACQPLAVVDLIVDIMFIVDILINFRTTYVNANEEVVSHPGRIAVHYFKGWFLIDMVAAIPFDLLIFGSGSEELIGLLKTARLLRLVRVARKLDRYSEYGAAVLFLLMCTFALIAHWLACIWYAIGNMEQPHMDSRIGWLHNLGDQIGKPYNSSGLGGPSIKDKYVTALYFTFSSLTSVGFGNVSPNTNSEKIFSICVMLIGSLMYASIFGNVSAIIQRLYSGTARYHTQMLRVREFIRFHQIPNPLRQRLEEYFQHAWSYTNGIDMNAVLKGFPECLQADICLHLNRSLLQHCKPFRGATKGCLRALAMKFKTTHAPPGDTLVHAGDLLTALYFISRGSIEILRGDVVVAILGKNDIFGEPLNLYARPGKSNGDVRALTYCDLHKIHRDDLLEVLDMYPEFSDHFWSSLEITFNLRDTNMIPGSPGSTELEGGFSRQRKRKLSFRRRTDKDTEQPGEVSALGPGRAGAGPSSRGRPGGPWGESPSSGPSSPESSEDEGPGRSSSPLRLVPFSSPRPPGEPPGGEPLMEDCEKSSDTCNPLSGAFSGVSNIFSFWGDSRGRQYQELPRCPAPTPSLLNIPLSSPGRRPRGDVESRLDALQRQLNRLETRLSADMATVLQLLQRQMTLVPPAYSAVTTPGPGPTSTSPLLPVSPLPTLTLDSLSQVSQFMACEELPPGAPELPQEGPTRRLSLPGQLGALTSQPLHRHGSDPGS
Sequence of Voltage-gated inwardly rectifying potassium channel KCNH2 (Q12809 whole entry): as above

Row | SMILES | fold change (FC) (Staphylococcus aureus [1]) | fold change (FC) (Staphylococcus aureus [2]) | fold change (FC) (Staphylococcus aureus [3]) | fold change (FC) (Staphylococcus aureus [4]) | fold change (FC) (Staphylococcus aureus [5]) | fold change (FC) (Staphylococcus aureus [6]) | fold change (FC) (Staphylococcus aureus [7]) | fold change (FC) (Staphylococcus aureus [8]) | fold change (FC) (Staphylococcus aureus [9]) | fold change (FC) (Staphylococcus aureus [10]) | fold change (FC) (Staphylococcus aureus [11]) | fold change (FC) (Staphylococcus aureus [12]) | fold change (FC) (Staphylococcus aureus [13]) | fold change (FC) (Staphylococcus aureus [14]) | fold change (FC) (Staphylococcus aureus [15]) | fold change (FC) (Staphylococcus aureus [16]) | fold change (FC) (Staphylococcus aureus [17]) | fold change (FC) (Staphylococcus aureus [18]) | fold change (FC) (Staphylococcus aureus [19]) | fold change (FC) (Staphylococcus aureus [20]) | other results
1 | CC(=O)NC[C@H]1CN(c2ccc(N3CCOCC3)c(F)c2)C(=O)O1 | 8 | 4 | 4 | 4 | 8 | 8 | 16 | 8 | 2 | 4 | 2 | 2 | 2 | 2 | 4 | 4 | 8 | 16 | 32 | 32 | fold change (FC) (Staphylococcus aureus [21]): 32
2 | C=C[C@]1(C)C[C@@H](OC(=O)Cn2cc(-c3ccc(Cn4cnc5c(N6CCNCC6)ncnc54)nc3)nn2)[C@]2(C)[C@H](C)CC[C@]3(CCC(=O)[C@H]32)[C@@H](C)[C@@H]1O | 8 | 8 | 16 | 32 | 32 | 64 | 64 | 4 | 16 | 32 | 32 | 32 | 64 | 128 | 4 | 8 | 16 | 8 | 32 | 32 | Activity (Staphylococcus aureus [22]): inactive; fold change (FC) (Staphylococcus aureus [21]): 32
3 | C=C[C@]1(C)C[C@@H](OC(=O)Cn2cc(-c3ccc(Cn4cnc5c(N)ncnc54)cc3)nn2)[C@]2(C)[C@H](C)CC[C@]3(CCC(=O)[C@H]32)[C@@H](C)[C@@H]1O |  |  |  |  |  |  |  |  |  |  |  |  |  |  |  |  |  |  |  |  | IC50 [23]: 36 µM; MIC (Staphylococcus aureus [24]): 0.03 µg/mL (≈ 0.046 µM); MIC (Streptococcus pneumoniae): 0.5 µg/mL (≈ 0.766 µM); MIC (Enterococcus faecalis): 0.25 µg/mL (≈ 0.383 µM); MIC (Enterococcus faecium [25]): 0.12 µg/mL (≈ 0.184 µM); MIC (Enterococcus faecium [26]): 0.12 µg/mL (≈ 0.184 µM); Activity (Escherichia coli): inactive; Activity (Listeria): inactive; Activity [27]: inactive; IC50 [28]: > 200 µM; inhibition at 8 min, 60 µM (hERG (KCNH2)): 26.3%; half-life at 0.5 h, 1 µM (in vitro [29]): < 0.5 min; CLint scaled at 0.5 h, 1 µM (in vitro [30]): > 600 L/h/kg; half-life at 0.5 h, 1 µM (in vitro [31]): 1.2 min; CLint scaled at 0.5 h, 1 µM (in vitro [32]): 305 L/h/kg
4 | C=C[C@]1(C)C[C@@H](OC(=O)Cn2cc(-c3ccc(Cn4cnc5c(N6CCNCC6)ncnc54)nc3)nn2)[C@]2(C)[C@H](C)CC[C@]3(CCC(=O)[C@H]32)[C@@H](C)[C@@H]1O.Cl.Cl |  |  |  |  |  |  |  |  |  |  |  |  |  |  |  |  |  |  |  |  | Activity (Staphylococcus aureus [33]): 1 log10FFU/ml; Activity (Staphylococcus aureus [34]): 2 log10FFU/ml
